Patent publication US6653529B2, “Use of the maize X112 mutant ahas 2 gene and imidazolinone herbicides for selection of transgenic monocots, maize, rice and wheat plants resistant to the imidazolinone herbicides” (BASF Aktiengesellschaft, priority 2000, dated 2003)
“And” between values parts separate entries of the source, which are not always exact repeats. Equal values may be shown once.

Key:
Format in all cases: in vivo
[1] = tested on: transgenic corn hybrid MAa-7; experiment: Greenhouse spray test of corn lines with imidazolinone herbicides, injury score; settings: for Score, individual plants (0 dead plants, 5 healthy plants with no injury) / M.S.: MAa-7; for Score, individual plants (0 dead plants, 5 healthy plants with no injury): 16 days after treatment; for M.S.: score 0 (dead) to 5 (healthy), 16 days
Source text: (§1) Grow one corn plant per pot (5×5 inch) in a 3×5 flat till three- to four-leaf stage (about 9 to 13 days depending on the weather). On the day of spraying, water the plants well and let excess water drip out. Spray plants on a belt-sprayer with the imidazolinone herbicides at desired rates. […] When temperature was too high, base water plants to prevent wilting. Closely observe the plants for the next two to three weeks. Symptoms of herbicide injury will be visible three days after spraying and susceptible plants will die within two to three weeks depending on temperature.
(§2) The plants were rated on a scale of 0-5 with 0 for dead plants and 5 for healthy plants with no or minimum injury.
(§3) Two transgenic hybrids BAa-4 and MAa-7 lines (see FIG. 5 for their pedigree), a non-transformed control line B×A (B73×A188), 8962IT (heterozygous XI12 imi-tolerant corn line), 8962 (wild type control) and 3395IR (homozygous XA17 imi-resistant corn line) (8962IT and 8962 were from ICI, now Garst Seed Company, Slater, Iowa 50244, and 3395IR was from Pioneer Hi-Bred International Inc, Iowa 50306-3453). Plants were sprayed with 4, 8, 16 or 20×PURSUIT® imazethapyr, ARSENAL® imazapyr, CADRE® imazameth or RAPTOR® imazamox. Plants were scored 0 to 5 (with 0 being dead plants, 5 being healthy plants with no injury) individually 16 days after herbicide treatments. […] For the four tested imidazolinones, transgenic plants could tolerate higher rates of ARSENAL® imazapyr, PURSUIT® imazethapyr, than CADRE® imazameth and RAPTOR® imazamox.

[2] = tested on: transgenic corn hybrid BAa-4; experiment: as above; settings: for Score, individual plants (0 dead plants, 5 healthy plants with no injury) / M.S.: BAa-4; for Score, individual plants (0 dead plants, 5 healthy plants with no injury): 16 days after treatment; for M.S.: score 0 (dead) to 5 (healthy), 16 days
Source text: as §1, §2, §3

[3] = tested on: 3395IR (homozygous XA17 imi-resistant corn line); experiment: as above; settings: for Score, individual plants (0 dead plants, 5 healthy plants with no injury): 16 days after treatment; for M.S.: score 0 (dead) to 5 (healthy), 16 days
Source text: as §1, §2, §3

[4] = tested on: non-transformed control corn line BxA (B73×A188); experiment: as above; settings: for Score, individual plants (0 dead plants, 5 healthy plants with no injury): 16 days after treatment; for M.S.: score 0 (dead) to 5 (healthy), 16 days
Source text: as §1, §2, §3

[5] = tested on: rice plants (transgenic Lines 26 and 29; Nt control); experiment: Greenhouse herbicide tests on rice
In short: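 Pre-germinated T3 lines and untransformed Nt sprayed with imazethapyr (63, 125, 250 g ai/ha) 1 day (pre-emergence) or 15 days (post-emergence) after seeding; later nine herbicides at 1, 2, 4, 6× rates. Read-outs: height, tillers, panicles, yield, fresh weight at 29–32 days, seed set; three replicates.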

[6] = tested on: 8692 (wild type control corn line); experiment: Greenhouse spray test of corn lines with imidazolinone herbicides, injury score; settings: for Score, individual plants (0 dead plants, 5 healthy plants with no injury): 16 days after treatment; for M.S.: score 0 (dead) to 5 (healthy), 16 days
[7] = tested on: 8692IT (heterozygous XI12 imi-tolerant corn line); experiment: as above; settings: for Score, individual plants (0 dead plants, 5 healthy plants with no injury): 16 days after treatment; for M.S.: score 0 (dead) to 5 (healthy), 16 days
[8] = 4×: PURSUIT 250, RAPTOR 160, ARSENAL 96, CADRE 400 g/ha
[9] = 8×: PURSUIT 500, RAPTOR 320, ARSENAL 192, CADRE 800 g/ha
[10] = 16×: RAPTOR 640 g/ha, ARSENAL 384 g/ha, CADRE 1.6 kg/ha

Compound: COCc1cnc(C2=NC(C)(C(C)C)C(=O)N2)c(C(=O)O)c1 (centres unmarked) [RAPTOR ®, imazamox]
- performance of transgenic line MAa-7 ([1]; 4× (160 g/ha)): performed well
- Score, individual plants (0 dead plants, 5 healthy plants with no injury) [1, 8]: 4 and 5 (4×)
- M.S. [1, 8]: 4.8
- Score, individual plants (0 dead plants, 5 healthy plants with no injury) [1, 9]: 3 (3×) and 2 and 4
- M.S. [1, 9]: 3
- Score, individual plants (0 dead plants, 5 healthy plants with no injury) [1, 10]: 1
- M.S. [1, 10]: 1
- growth of transgenic line BAa-4 ([2]; 4× (160 g/ha)): slightly affected
- Score, individual plants (0 dead plants, 5 healthy plants with no injury) [2, 8]: 3 and 4 (4×)
- M.S. [2, 8]: 3.8
- Score, individual plants (0 dead plants, 5 healthy plants with no injury) [2, 9]: 4 (4×) and 0
- M.S. [2, 9]: 3.2
- Score, individual plants (0 dead plants, 5 healthy plants with no injury) [2, 10]: 3 and 0 (3×) and 1
- M.S. [2, 10]: 0.8
- Score, individual plants (0 dead plants, 5 healthy plants with no injury) [3, 8]: 5
- M.S. [3, 8]: 5
- Score, individual plants (0 dead plants, 5 healthy plants with no injury) [3, 9]: 5
- M.S. [3, 9]: 5
- Score, individual plants (0 dead plants, 5 healthy plants with no injury) [3, 10]: 5
- M.S. [3, 10]: 5
- Score, individual plants (0 dead plants, 5 healthy plants with no injury) [4, 8]: 0
- M.S. [4, 8]: 0
- Score, individual plants (0 dead plants, 5 healthy plants with no injury) [4, 9]: 0
- M.S. [4, 9]: 0
- Score, individual plants (0 dead plants, 5 healthy plants with no injury) [4, 10]: 0
- M.S. [4, 10]: 0
- average seed set in two transgenic lines ([5]; PURSUIT, RAPTOR, CADRE, SCEPTER at all rates tested, ARSENAL 1 to 2×): about 85%
- rate at which growth of transgenic plants was slightly affected ([5]; post-emergence, fresh weight and visual observation): 6 ×
- rate at which growth of both transgenic lines was affected ([5]; pre-emergence): 6 ×
- Score, individual plants (0 dead plants, 5 healthy plants with no injury) [6, 8]: 0
- M.S. [6, 8]: 0
- Score, individual plants (0 dead plants, 5 healthy plants with no injury) [6, 9]: 0
- M.S. [6, 9]: 0
- Score, individual plants (0 dead plants, 5 healthy plants with no injury) [6, 10]: 0
- M.S. [6, 10]: 0
- Score, individual plants (0 dead plants, 5 healthy plants with no injury) [7, 8]: 4 and 3 (3×) and 2
- M.S. [7, 8]: 3
- Score, individual plants (0 dead plants, 5 healthy plants with no injury) [7, 9]: 3 (2×) and 2 (2×)
- M.S. [7, 9]: 2.5
- Score, individual plants (0 dead plants, 5 healthy plants with no injury) [7, 10]: 2 (2×) and 1 and 0 (2×)
- M.S. [7, 10]: 1
